Several values for one entry are separate records, joined by “and”; a condition that tells them apart may be missing. Identical values can stand only once.
How the values were obtained:
human MGAT2 = human MGAT2 (Homo sapiens, UniProt Q3SYC2); test: in vitro inhibitory activity against MGAT2 (human); assay type: biochemical
Experimental: (§1) CpdB, CpdA, and pioglitazone were synthesized at Takeda Pharmaceutical Co., Ltd. (Tokyo, Japan). The in vitro inhibitory activities of CpdB and CpdA against MGAT2 and related acyltransferases (DGAT1, DGAT2, and ACAT1) were evaluated as described in our previous report 17 and patent application 19. Liraglutide (Victoza) was purchased from Novo Nordisk Pharma Ltd. (Bagsvaerd, Denmark). All other chemicals were of analytical grade and purchased from Wako Pure Chemicals (Osaka, Japan).

mouse MGAT2 = mouse MGAT2 (Mus musculus, UniProt Q80W94); test: in vitro inhibitory activity against MGAT2 (mouse); assay type: biochemical
mouse MGAT2, sequence (Q80W94 whole entry): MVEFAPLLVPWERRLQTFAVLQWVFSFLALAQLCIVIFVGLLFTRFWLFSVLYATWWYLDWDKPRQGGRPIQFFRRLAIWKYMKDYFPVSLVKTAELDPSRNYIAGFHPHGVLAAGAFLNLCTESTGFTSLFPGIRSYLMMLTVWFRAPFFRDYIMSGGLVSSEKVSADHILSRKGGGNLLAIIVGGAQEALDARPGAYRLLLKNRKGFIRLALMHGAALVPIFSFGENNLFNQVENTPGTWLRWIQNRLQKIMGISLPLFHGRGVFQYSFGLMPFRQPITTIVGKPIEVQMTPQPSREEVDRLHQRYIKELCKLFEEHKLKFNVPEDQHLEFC
Experimental: as §1

DGAT1 human = target: T1, DGAT1 human (Homo sapiens, UniProt O75907); test: in vitro inhibitory activity against DGAT1; assay type: biochemical
T1 sequence (O75907 1-488): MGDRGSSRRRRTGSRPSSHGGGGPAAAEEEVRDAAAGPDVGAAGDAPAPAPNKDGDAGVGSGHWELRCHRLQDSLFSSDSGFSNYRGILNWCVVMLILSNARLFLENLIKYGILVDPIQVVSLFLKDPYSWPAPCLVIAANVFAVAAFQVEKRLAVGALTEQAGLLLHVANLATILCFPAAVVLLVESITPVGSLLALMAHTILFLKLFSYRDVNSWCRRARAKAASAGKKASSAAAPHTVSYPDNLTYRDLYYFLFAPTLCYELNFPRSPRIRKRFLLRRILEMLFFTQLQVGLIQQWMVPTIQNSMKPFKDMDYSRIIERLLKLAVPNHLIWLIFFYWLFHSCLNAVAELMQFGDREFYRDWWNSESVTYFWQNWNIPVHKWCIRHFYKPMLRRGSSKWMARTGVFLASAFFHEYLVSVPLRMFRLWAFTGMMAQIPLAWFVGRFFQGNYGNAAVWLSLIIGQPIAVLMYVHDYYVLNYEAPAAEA
Experimental: as §1

DGAT2 human = target: T2, DGAT2 human (Homo sapiens, UniProt Q96PD7); test: in vitro inhibitory activity against DGAT2; assay type: biochemical
T2 sequence (Q96PD7 1-388): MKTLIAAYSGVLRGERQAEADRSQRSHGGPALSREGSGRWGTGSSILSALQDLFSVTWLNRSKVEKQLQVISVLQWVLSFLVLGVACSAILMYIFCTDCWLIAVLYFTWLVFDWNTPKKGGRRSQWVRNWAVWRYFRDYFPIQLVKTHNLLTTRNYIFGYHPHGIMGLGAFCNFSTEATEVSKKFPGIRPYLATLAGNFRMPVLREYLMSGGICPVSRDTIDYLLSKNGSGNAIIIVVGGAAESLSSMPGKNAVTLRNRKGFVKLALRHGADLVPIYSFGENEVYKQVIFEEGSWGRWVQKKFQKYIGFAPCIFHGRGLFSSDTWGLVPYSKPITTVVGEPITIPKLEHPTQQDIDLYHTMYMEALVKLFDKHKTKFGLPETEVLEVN
Experimental: as §1

[1] = Pharmacokinetics of CpdB in mice; assay type: in vivo; conditions: C57BL/6J, mouse, plasma, 30 mg·kg^−1, 30 mg/kg single oral, mice fed an HFD, read-out: average plasma CpdB level 24 h after administration
Experimental: Fifty‐four‐week‐old C57BL/6J mice fed an HFD (45% kcal fat, 4.7 kcal·g^−1; D12451; Research Diets, Inc., New Brunswick, NJ, USA) were given a single oral administration of CpdB (30 mg·kg^−1). Blood samples were collected at 0.25, 0.5, 1, 2, 4, 8, and 24 h after the administration. Concentration of plasma CpdB in each sample was measured using liquid chromatography with tandem mass spectrometry as described in our previous report 18.

C57BL/6J mice [2] = test: Fat-induced gut peptide release and plasma TG after meal or oil load; assay type: in vivo, mouse; conditions: for Plasma total GLP-1 at 3 h, AVE / ΔPlasma total PYY AUC (0-2 h), AVE / Plasma total GLP-1 at 3 h, individual animal / ΔPlasma total PYY AUC (0-2 h), individual animal: CpdB 10 mg/kg oral; for Plasma total GLP-1 at 3 h, AVE / ΔPlasma total PYY AUC (0-2 h), AVE / Plasma TG at 2 h after oil load, AVE: mean, N=5; for Plasma total GLP-1 at 3 h, individual animal / ΔPlasma total PYY AUC (0-2 h), individual animal / Plasma TG at 2 h after oil load, individual animal: single animal values
Experimental: CpdB was suspended in 0.5% methylcellulose. Thirty minutes after administration, fat was loaded via oral gavage of either olive oil (8 mL·kg^−1) or liquid meal as described above (10 mL·kg^−1). Blood samples were collected precompound administration (defined as 0 h) and 1, 2, and 3 h after fat loading. Plasma levels of peptide tyrosine–tyrosine (PYY) and GLP‐1 were measured. To confirm the in vivo efficacy of CpdB, plasma TG levels were measured 2 h after olive oil loading. Mice orally loaded with water (8 mL·kg^−1) following vehicle administration were prepared as the control group.
Blood samples were collected from the tail or facial vein without anesthesia and centrifuged at 1500 g for 10 min at 4 °C to isolate the plasma. To prevent degradation of incretin hormone, blood samples were treated with not only heparin/aprotinin but also a dipeptidyl peptidase‐4 (DPP‐4) inhibitor. Plasma alanine aminotransferase […] levels were measured by an Autoanalyzer 7180 (Hitachi High‐Technologies Corporation, Tokyo, Japan). GHb was measured with an automated GHb analyzer (HLC‐723G8; Tosoh, Tokyo, Japan). Plasma insulin was measured with an ELISA kit (Shibayagi Co., Ltd., Gunma, Japan). Plasma levels of total GLP‐1 and total PYY were also measured with an ELISA kit (Wako Pure Chemicals).

C57BL/6J mice [3] = test: Food choice test (HFD vs LFD); assay type: in vivo, mouse; conditions: overnight, CpdB 10 mg/kg oral, liraglutide 0.04 mg/kg sc
Experimental: The choice between HFD (D12451; Research Diets, Inc.) and low‐fat diet (LFD, 10% kcal fat, 3.8 kcal·g^−1; D124510B; Research Diets, Inc.) was assessed in C57BL/6J mice. Following habituation to normal chow, HFD and LFD were presented in separate containers simultaneously, and overnight food intake of each diet was monitored. The mice were divided into groups based on the data of food intake and body weight. Then, vehicle or CpdB (10 mg·kg^−1) was orally administered, and the overnight food intake of each diet was monitored. CpdB was suspended in 0.5% methylcellulose. As a positive control, liraglutide (0.04 mg·kg^−1) dissolved in 10% DMSO/saline was subcutaneously administered.

human MGAT2, sequence (Q3SYC2 whole entry): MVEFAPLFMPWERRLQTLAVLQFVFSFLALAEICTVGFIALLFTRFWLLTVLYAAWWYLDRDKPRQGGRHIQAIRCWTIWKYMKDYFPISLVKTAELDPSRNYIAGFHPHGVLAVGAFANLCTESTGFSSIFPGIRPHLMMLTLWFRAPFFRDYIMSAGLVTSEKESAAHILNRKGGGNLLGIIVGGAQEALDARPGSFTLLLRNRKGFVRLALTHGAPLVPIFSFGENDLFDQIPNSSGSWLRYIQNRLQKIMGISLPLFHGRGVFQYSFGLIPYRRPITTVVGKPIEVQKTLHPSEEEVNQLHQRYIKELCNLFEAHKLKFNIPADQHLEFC

selectivity against related acyltransferases (DGAT1, DGAT2, and ACAT1) (human MGAT2; MGAT2 vs DGAT1, DGAT2, ACAT1): greater than 300 fold
IC50 (human MGAT2; human MGAT2): 8.1 nM
IC50 (mouse MGAT2): 0.85 nM
IC50 (DGAT1 human): 2500 nM
IC50 (DGAT2 human): > 30000 nM
concentration at 24 h [1]: 0.58 µM
SMILES: CC(C)(OC(=O)N[C@H]1CC[C@H](OC(=O)N2CCc3cc(S(=O)(=O)Nc4c(F)cc(Cl)cc4F)cc(N4CCCC4=O)c32)CC1)C(F)(F)F [CpdB]
Plasma total GLP-1 at 3 h, AVE (C57BL/6J mice [2]; liquid meal load): 1.78 pM
ΔPlasma total PYY AUC (0-2 h), AVE (C57BL/6J mice [2]; liquid meal load): 6.19 pMxh
Plasma total GLP-1 at 3 h, individual animal (C57BL/6J mice [2]; liquid meal load): 4.08 pM and 1.57 pM and 0.30 pM and 2.65 pM
ΔPlasma total PYY AUC (0-2 h), individual animal (C57BL/6J mice [2]; liquid meal load): 7.70 pMxh and -9.56 pMxh and 10.56 pMxh and 11.27 pMxh and 10.99 pMxh
Plasma TG at 2 h after oil load, AVE (C57BL/6J mice [2]; oil load, 10 mg/kg oral): 242.5 mg/dL
Plasma TG at 2 h after oil load, individual animal (C57BL/6J mice [2]; oil load, 10 mg/kg oral, 10 mg/kg): 165.0 mg/dL and 186.0 mg/dL and 337.8 mg/dL and 259.8 mg/dL and 264.0 mg/dL
Plasma TG at 2 h after oil load, AVE (C57BL/6J mice [2]; oil load, 30 mg/kg oral): 219.8 mg/dL
Plasma TG at 2 h after oil load, individual animal (C57BL/6J mice [2]; oil load, 30 mg/kg oral, 30 mg/kg): 261.0 mg/dL and 281.4 mg/dL and 164.4 mg/dL and 231.0 mg/dL and 161.4 mg/dL
Plasma total GLP-1 at 3 h, AVE (C57BL/6J mice [2]; oil load): 17.63 pM
ΔPlasma total PYY AUC (0-2 h), AVE (C57BL/6J mice [2]; oil load): 68.45 pMxh
Plasma total GLP-1 at 3 h, individual animal (C57BL/6J mice [2]; oil load): 14.07 pM and 19.72 pM and 15.79 pM and 16.41 pM and 22.18 pM
ΔPlasma total PYY AUC (0-2 h), individual animal (C57BL/6J mice [2]; oil load): 83.34 pMxh and 44.80 pMxh and 90.28 pMxh and 47.69 pMxh and 76.14 pMxh
Food intake, energy intake of HFD, AVE (C57BL/6J mice [3]; mean, N=5): 9.74 kcal
Food intake, energy intake of low-fat diet, AVE (C57BL/6J mice [3]; mean, N=5): 0.16 kcal
Food intake, total energy intake, AVE (C57BL/6J mice [3]; mean, N=5): 9.90 kcal
Food intake, energy intake of HFD, individual animal (C57BL/6J mice [3]; single animal values): 9.96 kcal and 11.47 kcal and 8.41 kcal and 8.88 kcal
Food intake, energy intake of low-fat diet, individual animal (C57BL/6J mice [3]; single animal values): 0.23 kcal and 0.00 kcal and 0.34 kcal
Food intake, total energy intake, individual animal (C57BL/6J mice [3]; single animal values): 10.19 kcal and 11.47 kcal and 8.41 kcal and 9.23 kcal
